Test results published in ChEMBL document CHEMBL1201862, “PubChem BioAssay data set” (2004).
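Method: 48-hour compound exposure of cells in 96-well plates, five concentrations, linear interpolation of endpoints. GI50 is the concentration that inhibits growth by half.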 Activity calls are given as the source filed them. Rule as the data show it: active = GI50 up to about 1.1 µM and inactive = higher.

Legend:
Test in all cases: inhibition of tumour cell growth, NCI panel, 48 h
[1] = system: K562
[2] = system: HCT-15
[3] = system: UACC-257
[4] = system: PC-3
[5] = system: COLO 205
[6] = system: NCI-H226
[7] = system: HT-29
[8] = system: TK-10
[9] = system: Hs-578T
[10] = system: SK-MEL-5
[11] = system: HL-60
[12] = system: MOLT-4
[13] = system: OVCAR-8
[14] = system: SK-MEL-28
[15] = system: M14
[16] = system: MDA-N
[17] = system: SK-OV-3
[18] = system: OVCAR-5
[19] = system: UACC-62
[20] = system: NCI-H23

| SMILES | GI50 [1] | GI50 [2] | GI50 [3] | GI50 [4] | GI50 [5] | GI50 [6] | GI50 [7] | GI50 [8] | GI50 [9] | GI50 [10] | GI50 [11] | GI50 [12] | GI50 [13] | GI50 [14] | GI50 [15] | GI50 [16] | GI50 [17] | GI50 [18] | GI50 [19] | GI50 [20] |
| --- | --- | --- | --- | --- | --- | --- | --- | --- | --- | --- | --- | --- | --- | --- | --- | --- | --- | --- | --- | --- |
| CC1(C)CCC[C@](C)([C@H]2CC[C@]3(C)[C@@H]2[C@H](O)C[C@@H]2[C@@]4(C)CC[C@H](O)C(C)(C)[C@@H]4[C@H](O)C[C@]23C)O1 | 5.48 µM (inactive) | 11.6 µM | 13.7 µM (inactive) | 10.9 µM (inactive) | 10 µM (inactive) | 15.7 µM (inactive) | 3.55 µM (inactive) | 11.3 µM (inactive) | 12.9 µM (inactive) | 3.64 µM (inactive) | 2.16 µM (inactive) | 3.78 µM (inactive) | 16.9 µM (inactive) | 11.9 µM (inactive) | 14.9 µM (inactive) | 13.5 µM (inactive) | 16.9 µM (inactive) | 20.1 µM (inactive) | 13.3 µM (inactive) | 11.3 µM (inactive) |
| Cc1ccc(Nc2c3c(c(C#N)c4nc5ccccc5n24)CCCC3)cc1 | 4.39 µM (inactive) | 16.9 µM | 17.7 µM (inactive) | 6.64 µM (inactive) | 18.3 µM (inactive) | 21.7 µM (inactive) | 13.6 µM (inactive) | 25.5 µM (inactive) | > 100 µM (inactive) | 10.7 µM (inactive) | 5.53 µM (inactive) | 3.73 µM (inactive) | 18 µM (inactive) | 22.1 µM (inactive) | 21.6 µM (inactive) | 28.7 µM (inactive) | 38 µM (inactive) | 34 µM (inactive) | 14.7 µM (inactive) | 22.4 µM (inactive) |
| N=C1OC(c2cccc(Cl)c2)C(NNS(=O)(=O)c2ccccc2)=C1O (stereo not given) | 3.69 µM (inactive) | 12.2 µM | 33.3 µM (inactive) | 21.2 µM (inactive) | 13.2 µM (inactive) | 43.9 µM (inactive) | 19.9 µM (inactive) | 37.7 µM (inactive) | 27.4 µM (inactive) | 41.7 µM (inactive) | 2.87 µM (inactive) | 4.11 µM (inactive) | 30.5 µM (inactive) | 20.9 µM (inactive) | 22.4 µM (inactive) | 14.5 µM (inactive) | > 100 µM (inactive) | 31.9 µM (inactive) | 24.9 µM (inactive) | 25.8 µM (inactive) |
| CCOC(=O)N1N=C(/C(C)=N/OC)C(C)[S+]1[O-] (stereo not given) | > 100 µM (inactive) | > 100 µM | > 100 µM (inactive) | > 100 µM (inactive) | > 100 µM (inactive) | > 100 µM (inactive) | > 100 µM (inactive) | > 100 µM (inactive) | > 100 µM (inactive) | > 100 µM (inactive) | > 100 µM (inactive) | > 100 µM (inactive) | > 100 µM (inactive) | > 100 µM (inactive) | > 100 µM (inactive) | > 100 µM (inactive) | > 100 µM (inactive) | > 100 µM (inactive) | > 100 µM (inactive) | > 100 µM (inactive) |
| CC(C)C1OC(=O)C(Cc2ccccc2)N(C)C(=O)C(C(C)C)OC(=O)C(Cc2ccccc2)N(C)C(=O)C(C(C)C)OC(=O)C(Cc2ccccc2)N(C)C1=O (stereo not given) | 0.838 µM (active) | 0.891 µM | 0.748 µM (active) | 0.687 µM (active) | 0.682 µM (active) | 1.36 µM (inactive) | 0.783 µM (active) | 0.757 µM (active) | 1.18 µM (inactive) | 0.53 µM (active) | 0.498 µM (active) | 0.508 µM (active) | 0.723 µM (active) | 0.78 µM (active) | 0.713 µM (active) | 0.815 µM (active) | 0.836 µM (active) | 1.03 µM (active) | 0.643 µM (active) | 1.03 µM (active) |
| C/C=C(\C)C(=O)OC1CC(OC(C)=O)C2(C(=O)OC)COC3C2C1(C)C1C2(C(=O)OC)OCC1(C3O)C1(O)C3CC(C4(O)C=COC4O3)C1(C)O2 (stereo not given) | > 100 µM (inactive) | > 100 µM | > 100 µM (inactive) | > 100 µM (inactive) | > 100 µM (inactive) | > 100 µM (inactive) | > 100 µM (inactive) | > 100 µM (inactive) | > 100 µM (inactive) | > 100 µM (inactive) | 92 µM (inactive) | > 100 µM (inactive) | > 100 µM (inactive) | > 100 µM (inactive) | > 100 µM (inactive) | 34.4 µM (inactive) | > 100 µM (inactive) | > 100 µM (inactive) | > 100 µM (inactive) | > 100 µM (inactive) |
| COC(=O)[C@H]1CO[C@@H](C(C)(C)C)N1C(=O)N1C=CC(=O)C[C@@H]1C | > 100 µM (inactive) | – | > 100 µM (inactive) | > 100 µM (inactive) | > 100 µM (inactive) | > 100 µM (inactive) | > 100 µM (inactive) | > 100 µM (inactive) | > 100 µM (inactive) | > 100 µM (inactive) | > 100 µM (inactive) | – | > 100 µM (inactive) | > 100 µM (inactive) | – | > 100 µM (inactive) | > 100 µM (inactive) | > 100 µM (inactive) | > 100 µM (inactive) | > 100 µM (inactive) |
| N=C(N)SCc1ccc(N=C=S)cc1 | 11.7 µM (inactive) | 11.3 µM | 13.1 µM (inactive) | 15.9 µM (inactive) | 13.4 µM (inactive) | 15.6 µM (inactive) | 15.1 µM (inactive) | 14.5 µM (inactive) | 12.6 µM (inactive) | 14 µM (inactive) | 5.62 µM (inactive) | > 100 µM (inactive) | 15.2 µM (inactive) | 14.6 µM (inactive) | – | 13.7 µM (inactive) | 17.3 µM (inactive) | 14.4 µM (inactive) | 11.4 µM (inactive) | 14.2 µM (inactive) |
| COc1cc(OC)cc(OCc2nc3cc(C(F)(F)F)ccc3nc2-c2ccccc2)c1 | > 100 µM (inactive) | > 100 µM | > 100 µM (inactive) | > 100 µM (inactive) | > 100 µM (inactive) | 90.8 µM (inactive) | 29.4 µM (inactive) | > 100 µM (inactive) | 69.2 µM (inactive) | – | > 100 µM (inactive) | > 100 µM (inactive) | > 100 µM (inactive) | > 100 µM (inactive) | > 100 µM (inactive) | > 100 µM (inactive) | > 100 µM (inactive) | > 100 µM (inactive) | > 100 µM (inactive) | > 100 µM (inactive) |
| COC1CC(N)C(O)C(C)O1 (stereo not given) | > 100 µM (inactive) | > 100 µM | > 100 µM (inactive) | > 100 µM (inactive) | > 100 µM (inactive) | > 100 µM (inactive) | > 100 µM (inactive) | – | > 100 µM (inactive) | > 100 µM (inactive) | > 100 µM (inactive) | > 100 µM (inactive) | > 100 µM (inactive) | > 100 µM (inactive) | > 100 µM (inactive) | > 100 µM (inactive) | > 100 µM (inactive) | > 100 µM (inactive) | > 100 µM (inactive) | > 100 µM (inactive) |
| CC(=O)Nc1ccc(NC(=O)c2c(Cl)c(Cl)c(Cl)c(Cl)c2-c2nc3ccccc3[nH]2)cc1 | 27.5 µM (inactive) | 85.1 µM | 40.1 µM (inactive) | 44.7 µM (inactive) | 17.6 µM (inactive) | 35.4 µM (inactive) | 35.7 µM (inactive) | – | 77.4 µM (inactive) | 28.6 µM (inactive) | 25.9 µM (inactive) | 21.5 µM (inactive) | 45.1 µM (inactive) | 40.2 µM (inactive) | 35.7 µM (inactive) | 35.3 µM (inactive) | 63.4 µM (inactive) | 67.1 µM (inactive) | 27.8 µM (inactive) | 32.5 µM (inactive) |
| Cc1coc2c1CC1(C)C(CCC(O)C1C)C2 (stereo not given) | > 100 µM (inactive) | > 100 µM | > 100 µM (inactive) | > 100 µM (inactive) | > 100 µM (inactive) | > 100 µM (inactive) | > 100 µM (inactive) | > 100 µM (inactive) | > 100 µM (inactive) | > 100 µM (inactive) | > 100 µM (inactive) | > 100 µM (inactive) | > 100 µM (inactive) | – | > 100 µM (inactive) | > 100 µM (inactive) | > 100 µM (inactive) | > 100 µM (inactive) | > 100 µM (inactive) | > 100 µM (inactive) |
| NS(=O)(=O)c1ccc(N2C(=O)C(=O)N(c3ccccc3)C2=S)cc1 | > 100 µM (inactive) | 60.3 µM | 37.8 µM (inactive) | > 100 µM (inactive) | > 100 µM (inactive) | 61.1 µM (inactive) | > 100 µM (inactive) | > 100 µM (inactive) | > 100 µM (inactive) | 97.1 µM (inactive) | > 100 µM (inactive) | > 100 µM (inactive) | > 100 µM (inactive) | > 100 µM (inactive) | – | > 100 µM (inactive) | > 100 µM (inactive) | > 100 µM (inactive) | > 100 µM (inactive) | > 100 µM (inactive) |
| C[n+]1c(-c2ccc(/C=N\Nc3ccnc(N/N=C/c4ccc(-c5cn6ccsc6[n+]5C)cc4)n3)cc2)cn2ccsc21 | 8.71 µM (inactive) | 64.4 µM | 17.7 µM (inactive) | 48.3 µM (inactive) | 27.6 µM (inactive) | 16.4 µM (inactive) | 9.93 µM (inactive) | 20.3 µM (inactive) | 84.1 µM (inactive) | 10.6 µM (inactive) | 24.2 µM (inactive) | 24.2 µM (inactive) | 27.4 µM (inactive) | – | 4.95 µM (inactive) | 2.96 µM (inactive) | > 100 µM (inactive) | 16.7 µM (inactive) | 24.4 µM (inactive) | 11.5 µM (inactive) |
